From US20260158031A1, “AROMATIC HETEROCYCLIC COMPOUND, PHARMACEUTICAL COMPOSITION CONTAINING THE SAME, AND USE THEREOF” (HANG ZHOU YUHONG PHARMATECH CO., LTD., priority 2021, published 2026)

Tests used:
JAK3 kinase = target: T1, JAK3 kinase (Homo sapiens, UniProt P52333); assay: Mobility shift assay, in vitro JAK3 kinase inhibitory activity; format: biochemical; conditions: mobility shift assay, Example 136
T1 sequence (P52333 1-1124): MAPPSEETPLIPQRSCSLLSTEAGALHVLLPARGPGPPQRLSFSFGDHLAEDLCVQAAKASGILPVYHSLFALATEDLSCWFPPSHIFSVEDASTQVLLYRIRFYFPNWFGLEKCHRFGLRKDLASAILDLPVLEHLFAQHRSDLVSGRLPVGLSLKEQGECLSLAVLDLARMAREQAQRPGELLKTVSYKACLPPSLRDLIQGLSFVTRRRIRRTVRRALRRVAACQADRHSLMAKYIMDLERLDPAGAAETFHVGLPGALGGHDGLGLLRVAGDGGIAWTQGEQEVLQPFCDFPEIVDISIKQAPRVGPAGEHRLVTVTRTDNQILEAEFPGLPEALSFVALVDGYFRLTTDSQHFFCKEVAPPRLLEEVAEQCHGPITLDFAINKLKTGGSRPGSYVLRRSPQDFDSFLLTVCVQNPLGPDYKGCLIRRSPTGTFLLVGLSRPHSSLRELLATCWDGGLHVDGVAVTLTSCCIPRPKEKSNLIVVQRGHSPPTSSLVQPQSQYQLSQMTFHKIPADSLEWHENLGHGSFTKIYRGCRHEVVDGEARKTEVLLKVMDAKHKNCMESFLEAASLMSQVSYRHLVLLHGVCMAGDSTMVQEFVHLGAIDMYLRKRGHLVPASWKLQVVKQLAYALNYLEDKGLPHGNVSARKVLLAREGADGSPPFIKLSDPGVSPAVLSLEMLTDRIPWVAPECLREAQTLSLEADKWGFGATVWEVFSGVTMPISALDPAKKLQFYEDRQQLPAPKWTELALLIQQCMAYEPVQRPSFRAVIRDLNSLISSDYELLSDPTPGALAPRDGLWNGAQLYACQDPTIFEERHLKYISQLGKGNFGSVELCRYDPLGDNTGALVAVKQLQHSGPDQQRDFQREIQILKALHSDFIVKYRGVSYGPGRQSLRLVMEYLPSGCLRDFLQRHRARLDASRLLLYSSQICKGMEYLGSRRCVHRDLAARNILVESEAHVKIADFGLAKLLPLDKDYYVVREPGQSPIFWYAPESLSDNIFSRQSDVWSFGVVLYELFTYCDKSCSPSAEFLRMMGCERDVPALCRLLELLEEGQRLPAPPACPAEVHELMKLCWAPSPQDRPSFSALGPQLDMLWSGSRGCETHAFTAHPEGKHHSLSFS
Procedure: A Mobility shift assay was adopted to detect compounds to be tested (see list below) for in vitro inhibitory activity on the enzyme activity of JAK3 kinase.
The compound was dissolved in 100% DMSO to formulate a 10 mM stock solution, which was stored in a −20° C. refrigerator with protection from light.
The compounds were diluted with gradients into solutions with a final concentration of 100 times in a 384-well plate. Then 250 nL was transferred to a 384 reaction plate with Echo550 for later use. 250 nL of 100% DMSO was added into the negative control well and the positive control well respectively. • (3) A kinase solution with a final concentration of 2.5 times was formulated with the 1× Kinase buffer. • (4) The compound wells and the positive control wells were added with 10 μL of the kinase solution with the final concentration of 2.5 times respectively; the negative control wells were added with 10 μL of the 1× Kinase buffer. • (5) The wells were centrifuged at 1,000 rpm for 30 seconds, mixed well by shaking, and then incubated at room temperature for 10 minutes. • (6) A mixed solution of ATP and Kinase substrate 22 with a final concentration of 25/15 times was formulated with a 1× Kinase buffer. • (7) The compound wells, positive control wells and negative control wells of the 384 reaction plate were respectively added with 15 μL of a mixed solution of ATP and the substrate at the final concentration of 25/15 times to start the reaction. • (8) The 384-well plate was centrifuged at 1,000 rpm for 30 seconds, mixed well by shaking, and then incubated at room temperature for 30 minutes. • (9) 30 μL of a detection termination solution was added to stop the kinase reaction, centrifuged at 1,000 rpm for 30 seconds, and mixed well by shaking. • (10) The conversion rate was read with Caliper EZ Reader.
% Inhibition=(Conversion %_max−Conversion %_sample)/(Conversion %_max−Conversion %_min)×100 (1) Calculation Equation
Among them: Conversion %_sample was the conversion rate reading of the sample; Conversion %_min was the mean value of the negative control wells, representing the conversion rate reading of the wells without enzyme activity; Conversion % max was the mean value of the positive control wells, representing the conversion rate reading of the wells without compound inhibition; and % Inhibition represented the percentage inhibition rate.
• by taking the log value of concentration as the X axis and taking the percent inhibition rate as the Y axis, a dose-response curve is fitted by adopting the log (inhibitor) vs. response-Variable slope of the analysis software GraphPad Prism 5, so as to obtain the IC50 value of each compound on the enzyme activity. The calculation equation was Y=Bottom+ (Top−Bottom)/(1+10^((Log IC50−X)*HillSlope)).

[1] = In vivo exposure detection in SD rats (plasma, LC-MS/MS); conditions: IG 20 mg/kg, average value
Procedure: Preparation and processing of standard curves and quality control samples: the compound stock solution was taken and diluted with 50% methanol and water into standard working solutions containing respective compounds at concentrations of 20, 40, 100, 200, 400, 1,000, 2,000, 4,000, and 10,000 ng/mL respectively and quality control working solutions at concentrations of 60, 600 and 8,000 ng/mL respectively. Each 47.5 μL of blank rat plasma was taken and added with 2.50 μL of a standard curve working solution and a quality control working solution respectively to prepare standard curve samples containing respective compounds at concentrations of 1.00, 2.00, 5.00, 10.00, 20.00, 50.00, 100.00, 200.00 and 500.00 ng/mL and quality control samples with concentrations of 3.00, 30.00 and 400.00 ng/mL. The samples were respectively added with 200 μL of acetonitrile (containing 2 ng/mL of verapamil as an internal standard), vortexed with shaking for 3 min, and then centrifuged at 20,000 rcf and 4° C. for 10 min, and the supernatant was taken for LC-MS/MS analysis.
Preparation and processing of plasma sample to be tested: 50 μL of the plasma sample was taken, added with 200 μL of acetonitrile (containing 2 ng/ml of verapamil as an internal standard), vortexed with shaking for 3 min, and then centrifuged at 20,000 rcf and 4° C. for 10 min, and […] for LC-MS/MS analysis.

SRBC mouse model = assay: SRBC-induced delayed type hypersensitivity (DTH) in mice; format: in vivo; conditions: male Balb/c mice, 100 mg/kg by gavage once a day, day 0 to day 6, FIG. 1
Procedure: PF-06651600 was used as a positive control compound.
Drug preparation: the compound was weighed and added with a 0.5% CMC-Na solution to prepare a drug suspension (with an administration dose of 10 mg/mL).
Induction of delayed type hypersensitivity (DTH) and administration: 30 male Balb/c mice were weighed and randomly divided into 6 groups according to body weight, with 5 mice in each group. The experimental period lasted for 7 days in total. On day 0, the mice were subcutaneously injected with sheep red blood cells (SRBCs) for sensitization. From day 0, the mice were administrated with 100 mg/kg by gavage (once a day) until day 6. On day 6, SRBCs were injected into the right hind foot pad of the mice for excitation. On day 7 of the experiment, measurements were conducted, photographs were taken, and the experiment was ended.
Pharmacodynamic detection indicators of disease models: the detection and observation indicators were the degree of redness and swelling and detected thicknesses of paw pads of the mice in the model group as induced by SRBC. The thickness of the right paw was measured as the baseline before the SRBC injection excitation on day 6. At the end of the experiment […], the thickness of the right paw was measured again, and the difference in thickness of the paw before and after the second injection was calculated.
Statistical processing: experimental data was expressed as mean±standard deviation (Mean±SD). All data was statistically analyzed using a T-test. P<0.05 was considered to be statistically different.

Row | SMILES | IC50 (JAK3 kinase) [nM] | also measured
1 | C=C(F)C(=O)N1Cc2[nH]nc(-c3ccnc4[nH]ccc34)c2C1 [YZ001077] | 7.1 | 
2 | C=C(F)C(=O)N1CCc2c(c(-c3ccnc4[nH]ccc34)nn2C)C1 [YZ001054] |  | AUClast_D [1]: 93.88 kg·ng·h/mL/mg; Cl_F_obs [1]: 235.1403 mL/min/kg; HL_Lambda_z [1]: 1.4162 h; Vz_F_obs [1]: 34.35946 L/kg; AUC(0-t) ([1]; Sprague-Dawley (SD), rat, po): 1880 ng·h/mL; Cmax ([1]; Sprague-Dawley (SD), rat, po): 1360 ng/mL; Tmax ([1]; Sprague-Dawley (SD), rat, po): 4.5 h; AUC(0-inf) ([1]; Sprague-Dawley (SD), rat, po, read-out: AUCINF_obs): 1900 ng·h/mL; MRT inf ([1]; Sprague-Dawley (SD), rat, po, read-out: MRTINF_obs): 1.95 h; immunosuppressive effect on SRBC-induced delayed type hypersensitivity (right paw thickness) (SRBC mouse model): significant immunosuppressive effects
3 | C=CC(=O)N1Cc2c(-c3ccnc4[nH]ccc34)cnn2[C@@H]2CCCC[C@@H]21 [YZ001055] | 0.11 | 
4 | C=CC(=O)N1Cc2c(-c3ccnc4[nH]ccc34)n[nH]c2[C@@H]1C [YZ001091] | 5.1 | 
5 | C=C(F)C(=O)N1Cc2c(-c3ccnc4[nH]ccc34)cnn2[C@@H]2CCCC[C@@H]21 [YZ001056] | 4.2 | 
6 | C=CC(=O)N1CCc2c(c(-c3ccnc4[nH]ccc34)nn2C(C)=O)C1 [YZ001108] | 0.35 | 
7 | C[C@H]1Cn2ncc(-c3ccnc4[nH]ccc34)c2CN1C(=O)/C=C/CN1CCCCC1 [YZ001023] | 0.58 | 
8 | C=C(F)C(=O)N1Cc2c(-c3ccnc4[nH]ccc34)cnn2[C@H](C)C1 [YZ001100] | 3.8 | 
9 | [2H]C([2H])([2H])n1nc(-c2ccnc3[nH]ccc23)c2c1CCN(C(=O)C=C)C2 [YZ001103] | 0.29 | 
10 | C[C@@H]1Cn2ncc(-c3ccnc4[nH]ccc34)c2CN1S(C)(=O)=O [YZ001011] | > 10000 | 
11 | C=C(F)C(=O)N1CCc2c(c(-c3ccnc4[nH]ccc34)nn2C(C)=O)C1 [YZ001109] | 5.2 | 
12 | CN(C)C/C=C/C(=O)N1Cc2c(-c3ccnc4[nH]ccc34)cnn2[C@@H]2CCC[C@@H]21 [YZ001047] | 4.5 | 
13 | C=CC(=O)N1Cc2[nH]nc(-c3ccnc4[nH]ccc34)c2C1 [YZ001076] | 0.28 | 

Second part, led by results:

Row | IC50 (JAK3 kinase) [nM] | SMILES | also measured
14 | 0.12 | C=CC(=O)N1Cc2c(-c3ncnc4[nH]ccc34)cnn2C[C@@H]1C(C)C [YZ001033] | 
15 | 0.87 | C[C@H]1Cn2ncc(-c3ccnc4[nH]ccc34)c2CN1C(=O)/C=C/CN(C)C [YZ001022] | 
16 | 0.15 | C=CC(=O)N1Cc2c(-c3ncnc4[nH]ccc34)cnn2C[C@@H]1C [YZ001024] | 
17 | 0.31 | C=CC(=O)N1Cc2c(-c3ccnc4[nH]ccc34)cnn2[C@H]2CCC[C@H]21 [YZ001057] | 
18 | 2.4 | C=CC(=O)N1Cc2c(-c3ncnc4[nH]ccc34)cnn2C[C@H]1C(C)C [YZ001030] | 
19 | 0.57 | C=CC(=O)N1Cc2c(-c3ccnc4[nH]ccc34)cnn2C[C@H]1CCS(C)(=O)=O [YZ001074] | 
20 | 1.5 | C=CC(=O)N1Cc2c(-c3ccnc4[nH]ccc34)nn(C)c2C[C@H]1C [YZ001083] | 
21 | 7 | C=CC(=O)N1CCCCn2ncc(-c3ccnc4[nH]ccc34)c2C1 [YZ001095] | 
22 | 7.8 | C[C@H]1CN(C(=O)/C=C/CN(C)C)Cc2c(-c3ncnc4[nH]ccc34)cnn21 [YZ001027] | 
23 | 1.4 | C=CC(=O)N1Cc2c(-c3ccnc4[nH]cc(C(C)=O)c34)cnn2C[C@@H]1C [YZ001063] | 
24 | 6.93 | C=CC(=O)N1CCc2c(c(-c3ccnc4[nH]ccc34)nn2C(C)C)C1 [YZ001117] | 
25 | 0.19 | C=CC(=O)N1Cc2c(-c3ccnc4[nH]ccc34)cnn2[C@@H]2CCC[C@@H]21 [YZ001045] | 
26 | 8.1 | C[C@@H]1Cn2ncc(-c3ccnc4[nH]ccc34)c2CN1C(=O)CCl [YZ001013] | 
27 | 1.4 | C=CC(=O)N1CCCn2ncc(-c3ccnc4[nH]ccc34)c2C1 [YZ001093] | 
28 | 0.53 | C=CC(=O)N1Cc2c(-c3ccnc4[nH]ccc34)nn(C(C)C)c2C[C@H]1C [YZ001085] | immunosuppressive effect on SRBC-induced delayed type hypersensitivity (right paw thickness) (SRBC mouse model): significant immunosuppressive effects
29 | 0.19 | C=CC(=O)N1Cc2c(-c3ncnc4[nH]ccc34)cnn2[C@H](C)C1 [YZ001028] | 
30 | 0.48 | C=CC(=O)N1Cc2c(-c3ncnc4[nH]ccc34)cnn2C[C@H]1C [YZ001018] | 
31 | 0.14 | C=CC(=O)N1CCn2ncc(-c3ccnc4[nH]ccc34)c2C1 [YZ001002] | 
32 | 0.43 | C=CC(=O)N1Cc2c(-c3ncnc4[nH]ccc34)cnn2[C@@H](C)C1 [YZ001026] | 
33 | 0.2 | C=CC(=O)N1Cc2c(-c3ccnc4[nH]ccc34)cnn2[C@H](C)C1 [YZ001099] | 
